Molecular target: U. maydis guanylate kinase (Mycosarcoma maydis, UniProt A0A0D1DZ04)
Assay: Determination of the KM value of guanylate kinase for its substrates (Lineweaver/Burk)
Format: biochemical, Ustilago maydis
Details: read-out: KM value; FIG. 3, Lineweaver/Burk representation; substrate of guanylate kinase
Text: Lineweaver/Burk representation of the data: 1/Vo=1/Vmax+1/S×(KM/Vmax), wherein Vo is the initial reaction rate, Vmax the maximum conversion rate possible and S the substrate concentration. Vmax and KM can then be read as the intercepts on the horizontal and the vertical axes 1/Vmax and 1/KM, respectively.
Here, pyruvate kinase converts phosphoenolpyruvate into pyruvate, which is then utilised by lactate dehydrogenase for oxidizing NADH to give NAD. The NAD concentration, which increases owing to the coupled reaction, or the NADH concentration, which decreases owing to the coupled reaction, can be measured photospectrometrically by absorption or fluorescence measurement (absorption drops at 340 nm, fluorescence drops at 340 nm (emission at 465 nm)).

U. maydis guanylate kinase, sequence (A0A0D1DZ04 118-213, added parts left off): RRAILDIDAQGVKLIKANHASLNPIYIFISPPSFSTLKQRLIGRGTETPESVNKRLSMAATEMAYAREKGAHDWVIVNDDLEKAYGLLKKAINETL

Compound | Km
Nc1ncnc2c1ncn2[C@@H]1O[C@H](COP(=O)(O)OP(=O)(O)OP(=O)(O)O)[C@@H](O)[C@H]1O [ATP] | 100 µM
Nc1nc2c(ncn2[C@@H]2O[C@H](COP(=O)(O)O)[C@@H](O)[C@H]2O)c(=O)[nH]1 [GMP] | 40 µM
